What was measured:
Assay type in all cases: functional
[1] = tested on: Henosepilachna vigintioctopunctata; assay: Antifeedant activity against Henosepilachna vigintioctopunctata in Solanum nigrum leaves assessed as mean leaf area fed at 5 ug/cm'2 by dual choice leaf disk bioassay (reference value: 0.74 +/- 0.02 to 0.91 +/- 0.01 cm'2)
[2] = tested on: Henosepilachna vigintioctopunctata; assay: Antifeedant activity against Henosepilachna vigintioctopunctata in Solanum nigrum leaves assessed as mean leaf area fed at 1 ug/cm'2 by dual choice leaf disk bioassay (reference value: 0.75 +/- 0.06 to 0.92 +/- 0.05 cm'2)
Spodoptera litura [3] = assay: Antifeedant activity against Spodoptera litura in Ricinus communis leaves assessed as mean leaf area fed at 1 ug/cm'2 by dual choice leaf disc bioassay (reference value: 53 +/- 2.44 to 53.6 +/- 2.61 cm'2)
[4] = tested on: Henosepilachna vigintioctopunctata; assay: Antifeedant activity against Henosepilachna vigintioctopunctata in Solanum nigrum leaves assessed as mean leaf area fed at 10 ug/cm'2 by dual choice leaf disk bioassay (reference value: 0.78 +/- 0.04 to 0.99 +/- 0.17 cm'2)
Spodoptera litura [5] = assay: Antifeedant activity against Spodoptera litura in Ricinus communis leaves assessed as mean leaf area fed by dual choice leaf disc bioassay; set-up: concentration or dose not given beside the values
Spodoptera litura [6] = assay: Antifeedant activity against Spodoptera litura in Ricinus communis leaves assessed as mean leaf area fed at 10 ug/cm'2 by dual choice leaf disc bioassay (reference value: 52.8 +/- 2.50 to 53.6 +/- 4.76 cm'2)
[7] = tested on: Henosepilachna vigintioctopunctata; assay: Antifeedant activity against Henosepilachna vigintioctopunctata in Solanum nigrum leaves assessed as mean leaf area fed by dual choice leaf disk bioassay; set-up: concentration or dose not given beside the values
Spodoptera litura [8] = assay: Antifeedant activity against Spodoptera litura in Ricinus communis leaves assessed as mean leaf area fed at 5 ug/cm'2 by dual choice leaf disc bioassay (reference value: 52.6 +/- 1.34 to 55.6 +/- 3.71 cm'2)

Compound: COc1c2c(c(O)c3c1C(=O)C1=C(C[C@H](C)O[C@@H]1C)C3=O)OCO2 [VENTILOQUINONE A]
- Activity [1]: 0.28 cm2
- Activity [2]: 0.46 cm2
- Activity (Spodoptera litura [3]): 25.2 cm2
- Activity [4]: 0.07 cm2
- Activity (Spodoptera litura [5]): 40%
- Activity (Spodoptera litura [6]): 7.2 cm2
- Activity [7]: 47%
- Activity (Spodoptera litura [8]): 19.8 cm2

Compound: COc1cc(O)c2c(c1)C(=O)c1cc(C)cc(O)c1C2=O [PHYSCION]
- Activity [1]: 0.32 cm2
- Activity [2]: 0.52 cm2
- Activity (Spodoptera litura [3]): 33.4 cm2
- Activity [4]: 0.15 cm2
- Activity (Spodoptera litura [5]): 30%
- Activity (Spodoptera litura [6]): 11.3 cm2
- Activity [7]: 34%
- Activity (Spodoptera litura [8]): 21.6 cm2

Compound: COc1c2c(c(OC)c3c1C(=O)C1=C(C3=O)[C@@H](C)O[C@@H](C)C1)OCO2 [VENTILOQUINONE B]
- Activity [1]: 0.34 cm2
- Activity [2]: 0.54 cm2
- Activity (Spodoptera litura [3]): 33.8 cm2
- Activity [4]: 0.17 cm2
- Activity (Spodoptera litura [5]): 29%
- Activity (Spodoptera litura [6]): 11.6 cm2
- Activity [7]: 32%
- Activity (Spodoptera litura [8]): 22.5 cm2

Compound: Cc1cc(O)c2c(c1)C(=O)c1cccc(O)c1C2=O [CHRYSOPHANOL]
- Activity [1]: 0.43 cm2
- Activity [2]: 0.61 cm2
- Activity (Spodoptera litura [3]): 40.4 cm2
- Activity [4]: 0.25 cm2
- Activity (Spodoptera litura [5]): 20%
- Activity (Spodoptera litura [6]): 13.6 cm2
- Activity [7]: 26%
- Activity (Spodoptera litura [8]): 24 cm2

Compound: C/C=C(\C)C(=O)O[C@H]1C[C@@H](OC(C)=O)[C@@]2(C(=O)OC)CO[C@H]3[C@@H](O)[C@@](C)([C@]45O[C@@]4(C)[C@H]4C[C@@H]5O[C@@H]5OC=C[C@@]54O)[C@H]4[C@]1(CO[C@]4(O)C(=O)OC)[C@@H]32 [AZADIRACTIN]
- Activity [1]: 0.2 cm2
- Activity [2]: 0.4 cm2
- Activity (Spodoptera litura [3]): 20.3 cm2
- Activity [4]: 0.05 cm2
- Activity (Spodoptera litura [5]): 60%
- Activity (Spodoptera litura [6]): 5 cm2
- Activity [7]: 56%
- Activity (Spodoptera litura [8]): 13.5 cm2

Compound: Cc1cc(O)c2c(c1)C(=O)c1cc(O)cc(O)c1C2=O [EMODIN]
- Activity [1]: 0.3 cm2
- Activity [2]: 0.48 cm2
- Activity (Spodoptera litura [3]): 33.2 cm2
- Activity [4]: 0.13 cm2
- Activity (Spodoptera litura [5]): 31%
- Activity (Spodoptera litura [6]): 11 cm2
- Activity [7]: 44%
- Activity (Spodoptera litura [8]): 20.5 cm2

Compound: COc1c2c(c(O)c3c1C(=O)c1coc(C)c1C3=O)OCO2 [VENTILONE B]
- Activity [1]: 0.37 cm2
- Activity [2]: 0.56 cm2
- Activity (Spodoptera litura [3]): 34.9 cm2
- Activity [4]: 0.19 cm2
- Activity (Spodoptera litura [5]): 27%
- Activity (Spodoptera litura [6]): 13 cm2
- Activity [7]: 31%
- Activity (Spodoptera litura [8]): 23 cm2

Compound: COc1cc(OC)c2c(c1OC)C(=O)C1=C(C2=O)[C@@H](C)O[C@@H](C)C1 [VENTILOQUINONE E]
- Activity [1]: 0.39 cm2
- Activity [2]: 0.58 cm2
- Activity (Spodoptera litura [3]): 35.1 cm2
- Activity [4]: 0.21 cm2
- Activity (Spodoptera litura [5]): 25%
- Activity (Spodoptera litura [6]): 13.3 cm2
- Activity [7]: 29%
- Activity (Spodoptera litura [8]): 23.3 cm2

From ChEMBL document CHEMBL3045069, “Antifeedant activity of quinones from Ventilago madaraspatana” (2001)
